Test results: paper PMC6278073 (BMC Pharmacology & Toxicology, 2018)

Experiments:
[1] = in vivo
Experimental: (§1) Prairie dog PK studies were performed at Centers for Disease Control and Prevention (CDC, Atlanta). […] The animals were collected in Lubbock, TX. All animals are given full physical examination by a veterinarian prior to being shipped to CDC. […] For each blood sample collection, prairie dogs were anesthetized with 5% isoflurane gas and maintained with 1–3% isoflurane during sample collection through peripheral veins. Plasma was prepared and stored at -70 °C until bioanalysis.
(§2) Sample preparation and bioanalysis was performed at the University of Cincinnati. For extraction, 50 μl of plasma samples were transferred to glass tubes. […] The extraction solvent was separated by centrifugation. […] Collected fractions were evaporated using centrifugal evaporator.
(§3) Analysis of extracted samples was performed by an LC-MS/MS method. […] The column was Synergi™ 4 μm Polar-RP 50 × 2.00 mm (Phenomenex) run at a flow rate of 400 μl/min with an injection volume of 5 μl (partial loop). […] The analysis was performed using a Thermo Scientific LTQ-FT™ mass spectrometer operated in positive-ion electrospray mode.
(§4) Pharmacokinetic analysis was performed on either mean plasma concentration-time data (mouse) or on the individual plasma concentration-time data (prairie dog, guinea pig, and monkey) employing Phoenix® WinNonlin 6.4®. PK parameters such as maximum plasma concentration (Cmax), the time corresponding to Cmax (Tmax), terminal half-life (T1/2), the volume of distribution (Vd) and clearance (CL) were calculated by non-compartmental methods and presented as the arithmetic mean ± standard deviation (SD). The bioavailability (F) was estimated by dividing the mean dose-normalized area under the plasma concentration-time curve from time 0 extrapolated to infinity (AUCinf) upon oral dose by the mean dose-normalized AUCinf upon intravenous dose.

[2] = prairie dogs
Experimental: as §1
The formulation used in previously reported PK studies have varied based on the animal model. […] For their intravenous PK study in dogs, Solutol® HS 15 was used instead of cremophor [13].

[3] = nilotinib, cited from earlier work
[4] = nilotinib, 7 mg twice-daily, 20 mg once-daily, 20 mg twice-daily for 7 days, prairie dogs
Experimental: as §1

[5] = nilotinib; cited from earlier work
[6] = in vivo; settings: male, Hartley, guinea pig, iv, 10 mg/kg
Experimental: Male Hartley guinea pigs (450–650 g) were procured from Charles River. Nine animals were used, three (n = 3) for each route of administration. The intravenous dose was given via jugular vein cannula, and the oral dose was given via gavage. […] Plasma was prepared and stored at -80 °C until bioanalysis.
as §2, §3, §4

[7] = in vivo; remark: listed apart in the source
Experimental: Six Animals (3.5 kg) were procured from Charles River, three (n = 3) for each route of administration. Animals were fasted overnight before dosing and at least 1 h following dose administration. The intravenous dose was given via a saphenous vein at an injection volume of 1 ml/kg, and oral dosing was performed via gavage at a dose volume of 5 ml/kg. […] Plasma was prepared and stored at-70 °C until bioanalysis.
as §2, §3, §4

[8] = system: plasma protein; settings: nilotinib, all the preclinical species and humans; cited from earlier work
[9] = in vivo; remark: listed apart in the source
Experimental: PK studies in animals were approved by the Institutional Animal Care and Use Committee (IACUC) of the institution performing the study. […] Twenty-four animals were used for each route of administration and both the genders were randomly included (n = 3 mice per time point). The intravenous dose was administered via tail vein injection at an injection volume of 5 ml/kg, and the oral dose was given via gavage at a dose volume of 10 ml/kg. […] Mice were sacrificed with carbon dioxide asphyxiation following bleeds. Plasma was prepared and stored at -80 °C until bioanalysis.
as §2, §3, §4

[10] = male, dog, in vivo, iv, 10 mg/kg
[11] = male, dog, in vivo, po, 10 mg/kg
[12] = male, dog, in vivo, po, 20 mg/kg
[13] = nilotinib, IV 10 mg/kg, prairie dogs, mean ± SD
[14] = cynomolgus monkey, in vivo, iv, 10 mg/kg
[15] = cynomolgus monkey, in vivo, po, 10 mg/kg
[16] = both, C57BL/6, mouse, in vivo, iv, 10 mg/kg
[17] = both, C57BL/6, mouse, in vivo, po, 10 mg/kg
[18] = male, dog, in vivo, po, 30 mg/kg

Cc1cn(-c2cc(NC(=O)c3ccc(C)c(Nc4nccc(-c5cccnc5)n4)c3)cc(C(F)(F)F)c2)cn1 [nilotinib]
bioavailability ([1]; male, dog, in vivo, nilotinib, oral 20 mg/kg in NMP/PEG 300 vs IV 10 mg/kg, prairie dogs): ~24%
AUC(0-inf) [1, 10]: 57600 ng·h/mL
MRT [1, 10]: 6.7 ± 2.9 h
Vd [1, 10]: 1.16 ± 0.326 L/kg
clearance [1, 10]: 3.17 mL/min/kg
half-life ([1]; male, dog, in vivo, iv, 10 mg/kg, T1/2, nilotinib, IV 10 mg/kg, prairie dogs, mean ± SD): 6.5 h
AUC(0-inf) [1, 11]: 9330 ± 3630 ng·h/mL
Cmax [1, 11]: 951 ± 255 ng/mL
Tmax [1, 11]: 5.6 ± 2.19 h
half-life ([1]; male, dog, in vivo, po, 10 mg/kg, Apparent T1/2, nilotinib, oral 10 mg/kg in Avicel/HPMC suspension, prairie dogs, mean ± SD): 3.5 ± 0.6 h
bioavailability ([1]; male, dog, in vivo, po, 10 mg/kg, nilotinib, oral 10 mg/kg in Avicel/HPMC suspension vs IV 10 mg/kg, prairie dogs): 16%
AUC(0-inf) [1, 12]: 28000 ng·h/mL
Cmax [1, 12]: 1670 ± 315 ng/mL
Tmax [1, 12]: 7.2 ± 1.79 h
half-life ([1]; male, dog, in vivo, po, 20 mg/kg, Apparent T1/2, nilotinib, oral 20 mg/kg in NMP/PEG 300, prairie dogs, mean ± SD): 7.5 h
bioavailability ([1]; male, dog, in vivo, po, 20 mg/kg, nilotinib, oral 20 mg/kg in NMP/PEG 300 vs IV 10 mg/kg, prairie dogs): 24%
AUC(0-inf) [1, 13]: 57,551 ± 15,508 ng.hr./ml
CL [1, 13]: 3.17 ± 1.28 mL/min/kg
T1/2 ([1]; nilotinib, IV 10 mg/kg, prairie dogs, mean ± SD, 10 mg/kg): 6.51 ± 2.97 h
Apparent T1/2 ([1]; nilotinib, oral 20 mg/kg in NMP/PEG 300, prairie dogs, mean ± SD, 20 mg/kg): 7.57 ± 2.01 h
Tolerability in multi-dose studies ([2]; nilotinib/NMP (20 mg/ml) in PEG 300 (1:10), oral, weight loss, severe diarrhea, elevated liver enzymes also in vehicle-treated animals, data not shown): not tolerated
Tolerability in multiple dose PK studies ([2]; oral suspension of Avicel-RC 591 and HPMC): tolerable
Solubility in an acidic environment ([3]; acidic environment): soluble
Solubility at pH above 4.5 ([3]; pH above 4.5): poorly soluble
Water solubility [3]: low
Deviation of predicted peak and trough levels on Days 1 and 7 from reported levels [4]: ≤ 25%
Biopharmaceutics Classification System class [5]: class II/IV
Permeability [5]: poor to moderate
Vd [6]: 37.6 L/kg
clearance [6]: 198 mL/min/kg
half-life [6]: 2.1 h
AUC(0-inf) [7, 14]: 16100 ng·h/mL
MRT [7, 14]: 8.9 ± 1.1 h
Vd [7, 14]: 5.74 ± 1.78 L/kg
clearance [7, 14]: 10.7 mL/min/kg
half-life ([7]; cynomolgus monkey, in vivo, iv, 10 mg/kg, T1/2, nilotinib, IV 10 mg/kg, Cynomolgus monkeys, mean ± SD): 7.8 h
AUC(0-inf) [7, 15]: 2100 ± 468 ng·h/mL
Cmax [7, 15]: 410 ± 46 ng/mL
Tmax [7, 15]: 1.67 ± 0.58 h
bioavailability [7, 15]: 13%
half-life ([7]; cynomolgus monkey, in vivo, po, 10 mg/kg, Apparent T1/2, nilotinib, oral 10 mg/kg in Avicel/HPMC, Cynomolgus monkeys, mean ± SD): 5.2 h
T1/2 ([7]; nilotinib, IV 10 mg/kg, Cynomolgus monkeys, mean ± SD): 7.79 ± 0.71 h
Apparent T1/2 ([7]; nilotinib, oral 10 mg/kg in Avicel/HPMC, Cynomolgus monkeys, mean ± SD): 5.16 ± 0.52 h
Protein binding [8]: greater than 97%
AUC(0-inf) [9, 16]: 76300 ng·h/mL
MRT [9, 16]: 2.21 h
Vd [9, 16]: 0.29 L/kg
clearance [9, 16]: 2.19 mL/min/kg
half-life [9, 16]: 1.81 h
AUC(0-inf) [9, 17]: 38400 ng·h/mL
Tmax [9, 17]: 0.5 h
half-life [9, 17]: 2.94 h
bioavailability ([9]; both, C57BL/6, mouse, in vivo, po, 10 mg/kg, Bioavailability, nilotinib, oral 10 mg/kg in NMP/PEG 300 vs IV 10 mg/kg, C57BL/6 mice): 50%
Cmax ([9]; both, C57BL/6, mouse, in vivo, po, 10 mg/kg, nilotinib, oral 10 mg/kg in NMP/PEG 300, C57BL/6 mice): 18000 ng/mL
Cmax ([9]; both, C57BL/6, mouse, in vivo, po, 10 mg/kg, nilotinib, oral 10 mg/kg, C57BL/6 mice): ~18000 ng/mL
Time to Cmax after dosing ([9]; nilotinib, oral 10 mg/kg, C57BL/6 mice): 30 min

Cc1ccc(NC(=O)c2ccc(CN3CCN(C)CC3)cc2)cc1Nc1nccc(-c2cccnc2)n1 [imatinib]
bioavailability ([1]; male, dog, in vivo): ~22%
AUC(0-inf) [1, 10]: 12600 ng·h/mL
AUC(0-inf) [1, 18]: 8090 ± 3010 ng·h/mL
Cmax [1, 18]: 1680 ± 834 ng/mL
Tmax [1, 18]: 3 ± 1.15 h
AUC(0-inf) [9, 16]: 4520 ng·h/mL
AUC(0-inf) [9, 17]: 4850 ng·h/mL
Tmax [9, 17]: 1 h
Cmax [9, 17]: 1470 ng/mL
